Read-outs that look alike come from different tables or passages of the source.
Assays:
murine sEH = molecular target: T1, murine sEH (Mus musculus, UniProt P34914); assay: Fluorescent sEH inhibition assay
T1 sequence (P34914 1-554): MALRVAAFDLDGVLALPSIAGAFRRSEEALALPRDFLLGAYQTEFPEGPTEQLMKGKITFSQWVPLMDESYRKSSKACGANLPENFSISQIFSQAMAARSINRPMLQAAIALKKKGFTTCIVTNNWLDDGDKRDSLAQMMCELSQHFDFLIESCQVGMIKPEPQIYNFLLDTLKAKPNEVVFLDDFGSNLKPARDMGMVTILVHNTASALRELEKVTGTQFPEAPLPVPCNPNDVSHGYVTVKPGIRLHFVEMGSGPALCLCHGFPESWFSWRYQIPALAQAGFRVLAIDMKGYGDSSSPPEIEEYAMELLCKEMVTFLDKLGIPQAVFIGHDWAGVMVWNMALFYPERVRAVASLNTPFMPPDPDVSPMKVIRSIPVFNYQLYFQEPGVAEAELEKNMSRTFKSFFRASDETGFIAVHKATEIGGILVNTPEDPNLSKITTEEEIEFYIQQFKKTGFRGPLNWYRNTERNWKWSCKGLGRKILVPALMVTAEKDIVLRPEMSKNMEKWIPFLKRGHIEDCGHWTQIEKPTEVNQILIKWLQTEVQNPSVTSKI

[1] = test system: ERK phosphorylation in ACHN and A498 cells; assay: Immunoblot of ERK phosphorylation after PDGF stimulation; type: cell-based, human; conditions: two RCC cell lines (ACHN, A498), 10 μM, 1 h, then PDGF 10 ng/ml 15 min
in vivo = conditions: male, Swiss-Webster, mouse, po, 5 mg/kg
[2] = mice, sorafenib tosylate 5 mg/kg oral
[3] = test system: caspase-1 and caspase-3 activity in ACHN and A498 cells; assay: Caspase assay; type: cell-based, human; conditions: 10 μM, 48 h
[4] = man, phase I study, cited from earlier work
[5] = test system: ACHN and A498 human RCC cells; assay: MTT assay of cell growth; type: cell-based; conditions: 10 μM, 48 h
human sEH [6] = molecular target: T2, human sEH (Homo sapiens, UniProt P34913); assay: biochemical; type: biochemical
T2 sequence (P34913 1-555): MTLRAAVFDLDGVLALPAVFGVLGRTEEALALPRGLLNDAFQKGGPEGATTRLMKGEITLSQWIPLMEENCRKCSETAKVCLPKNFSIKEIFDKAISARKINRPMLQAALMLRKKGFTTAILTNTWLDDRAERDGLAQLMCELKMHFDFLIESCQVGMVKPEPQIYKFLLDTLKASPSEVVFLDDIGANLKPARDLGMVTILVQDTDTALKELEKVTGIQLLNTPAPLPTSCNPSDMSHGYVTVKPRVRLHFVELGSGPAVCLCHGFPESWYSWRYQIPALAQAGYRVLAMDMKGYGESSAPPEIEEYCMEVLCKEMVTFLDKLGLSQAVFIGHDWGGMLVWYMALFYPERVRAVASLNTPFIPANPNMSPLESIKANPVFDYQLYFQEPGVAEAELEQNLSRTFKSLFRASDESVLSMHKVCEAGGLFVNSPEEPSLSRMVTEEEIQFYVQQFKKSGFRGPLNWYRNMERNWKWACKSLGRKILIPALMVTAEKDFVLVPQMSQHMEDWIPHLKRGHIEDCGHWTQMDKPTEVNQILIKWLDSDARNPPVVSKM

human sEH [7] = molecular target: T2, human sEH; type: biochemical; conditions: read-out: Inhibition of the Human sEH KI; pH 7.4

Cc1nc(Nc2ncc(C(=O)Nc3c(C)cccc3Cl)s2)cc(N2CCN(CCO)CC2)n1 [Dasatinib]
IC50 (murine sEH): 27 µM

COc1cccc(-c2cc(=O)c3ccccc3o2)c1N [PD98059]
ERK phosphorylation [1]: attenuate ERK phosphorylation

CNC(=O)c1cc(Oc2ccc(NC(=O)Nc3ccc(Cl)c(C(F)(F)F)c3)cc2)ccn1 [Sorafenib]
ERK phosphorylation [1]: attenuate ERK phosphorylation | AUC(0-t) (in vivo): 0.63 µM·h | Cmax (in vivo): ~120 nM | half-life (in vivo): 156 min | Blood level after 24 h [2]: no sorafenib could be detected | Apoptosis: caspase-1 and caspase-3 activity [3]: activation of caspase-1 and caspase-3 activity | Cmax ([4]; similar doses): > 1500 nM | AUC0-12 [4]: more than 13000 nM h | Elimination half life [4]: more than 20 hours | Tmax [4]: more than 2 h | Decrease of cell growth as compared to serum-stimulated cells [5]: 65-70%

CCN(CC)CCNC(=O)c1c(C)[nH]c(/C=C2\C(=O)Nc3ccc(F)cc32)c1C [Sunitinib]
IC50 (human sEH [6]): 55 µM | Inhibition of the human sEH (in words) (human sEH [6]; fluorescent assay): not potent inhibitors of the human sEH

CS(=O)(=O)N1CCC(NC(=O)Nc2ccc(OC(F)(F)F)cc2)CC1 [TUPS]
IC50 (human sEH [6]; read-out: Inhibition of the Human sEH IC50, pH 7): 0.003 ± 0.001 µM | Ki (human sEH [7]): 14 ± 4 nM

Source: paper PMC2728155 (Molecular cancer therapeutics, 2009)
